Measurements from patent publication US10329259B2, “Pyrazole derivatives and their use as cannabinoid receptor mediators” (The United States of America, as represented by the …, priority 2014, dated 2019).
Where two headings read alike, the source gives them in different places.

Target: T1, mouse CB1 receptor (Mus musculus, UniProt P47746)
T1 construct: radioligand displacement assay using mouse brain plasma membranes; from tissue; host or cells: mouse brain plasma membranes
Experiment: radioligand displacement assay using mouse brain plasma membranes and 3H-CP55540
Assay type: binding
Description: In addition, the compounds disclosed herein may be less lipophilic.

T1 sequence (P47746 whole entry): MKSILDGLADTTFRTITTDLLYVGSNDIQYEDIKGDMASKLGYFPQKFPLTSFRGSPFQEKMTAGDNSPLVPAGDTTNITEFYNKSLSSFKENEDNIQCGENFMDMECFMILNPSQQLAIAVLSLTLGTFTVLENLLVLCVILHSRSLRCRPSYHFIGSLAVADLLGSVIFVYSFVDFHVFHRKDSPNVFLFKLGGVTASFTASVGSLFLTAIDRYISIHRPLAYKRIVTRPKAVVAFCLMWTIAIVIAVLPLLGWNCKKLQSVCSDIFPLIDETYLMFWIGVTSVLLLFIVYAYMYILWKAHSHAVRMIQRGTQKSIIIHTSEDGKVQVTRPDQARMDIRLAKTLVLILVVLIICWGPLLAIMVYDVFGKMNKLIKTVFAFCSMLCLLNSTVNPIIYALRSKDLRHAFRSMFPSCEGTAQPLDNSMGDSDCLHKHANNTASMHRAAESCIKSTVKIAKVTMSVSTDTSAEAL

`CC(=O)NC(=N)NC(=NS(=O)(=O)N1CCC(F)(F)CC1)N1CC(c2ccccc2)C(c2ccc(Cl)cc2)=N1` (stereo not drawn) [MRI-1950] was tested. Which Ki (mouse brain plasma membranes, 3H-CP55540 as labeled ligand, read-out: Ki CB1) did it give?
Its Ki is 1.2 nM.

How did the Ki turn out when `CC(C)(C)/C(N)=N/C(=N/S(=O)(=O)N1CCC(F)(F)CC1)N1CC(c2ccccc2)C(c2ccc(Cl)cc2)=N1` (stereo not drawn) [Table 1 Serial # 10] was run?
Its Ki is 21 nM.

With `C/C(N)=N/C(=N/S(=O)(=O)N1CCC(C(F)(F)F)CC1)N1CC(c2ccccc2)C(c2ccc(Cl)cc2)=N1` (stereo not drawn) [Table 1 Serial # 13] as the compound, how does the Ki read?
Its Ki is 3 nM.
